# Measured values: patent US20250352555A1, “METHOD OF INCREASING IMMUNE CELL ACTIVATION AND/OR TREATING CANCER USING DIBENZOXAZEPINONES” (VASCULAR THERAPEUTICS PTY LTD, priority 2022, published 2025)
# Legend:
# A375 cells = assay: Migration assay (scratch), A375; type: cell-based, human; details: 1 μM, 24 h, with greater potency than SCH772984
# Experimental: Migration assays. Cells were grown in medium containing 10% FBS in 6-well plates. The following day the cells were scratched with a sterile toothpick, washed with PBS, and incubated in medium containing 10% FBS and vehicle, BT2 or SCH772984 at 1 μM. At 0, 24 h and 48 h the cells were photographed under a 4× objective using an Olympus CKX41 microscope. To assess the effect of BT2 on melanoma cell migration, A375 and MeWo cells were incubated with 1 μM of BT2 or SCH772984, and A375 and MeWo migration into the denuded zone was quantified after 24 or 48 h, respectively.
# PD-1 = assay: Western blotting for PD-1, Jurkat T cells; type: cell-based, human; details: various concentrations, 24 h
# Experimental: (§1) Western blotting. Cells were treated with compounds and times indicated and total cell lysates were prepared in RIPA buffer. Lysates (10 μg) were resolved by SDS-PAGE and transferred to Immobilon-P polyvinylidene difluoride (PVDF) membranes (Millipore, USA).
# (§2) Membranes were blocked with 5% skim milk and incubated with rabbit monoclonal anti-c-Jun (Abcam, cat. no. ab32137; mouse, rat and human reactive) antibody, rabbit monoclonal anti-PD-1 (Abcam, cat. no. ab214421) antibody, mouse monoclonal β-actin antibody (Sigma-Aldrich, cat. no. A5316), anti-phospho-SAPK/JNK (Thr^183/Tyr^185) (98F2) (CST, cat. no. 4671) antibody, anti-phospho-p44/42 MAPK (ERK1/2) (Thr^202/Tyr^204) (D13.14.4E) (CST, cat. no. 4370) antibody, anti-phospho-p38 MAPK (Thr^180/Tyr^182) (D3F9) (CST, cat. no. 4511) antibody, anti-SAPK/JNK antibody (CST, cat. no. 9252), anti-p44/42 MAPK (ERK1/2) (137F5) antibody (CST, cat. no. 4695), anti-p38 MAPK antibody (CST, cat. no. 9212), anti-DUSP8 antibody (Abcam, cat. no. ab198175) or anti-c-MAF (BLR045F) antibody (Abcam, cat. no. ab243901). This was followed by incubation with horseradish peroxidase-conjugated secondary goat anti-rabbit (DAKO, cat. no. P0448) or goat anti-mouse (DAKO, cat. no. P0447) antibody. Chemiluminescence was detected using the Western Lightning Chemiluminescence system (Thermo Scientific, USA) and ImageQuant™ LAS 4000 biomolecular imager (GE Healthcare Life Sciences, USA). Band intensity in images generated with the LAS 4000 was quantified using NIH Image J.
# p-ERK (Thr^202/Tyr^204) = assay: Western blotting for p-ERK, MeWo melanoma cells; type: cell-based, human; details: 10 or 100 nM, 24 h
# Experimental: as §1
# as §2, with “4695), anti-p38 MAPK antibody (CST, cat. no. 9212), anti-DUSP8 antibody (Abcam, cat. no. ab198175) or anti-c-MAF (BLR045F) antibody (Abcam, cat. no. ab243901). This was followed by incubation with horseradish peroxidase-conjugated secondary goat anti-rabbit (DAKO, cat. no. P0448) or goat anti-mouse (DAKO, cat. no. P0447) antibody.” left out
# The effect of BT2 on ERK phosphorylation (p-ERK) was evaluated in human melanoma cells given that MAP kinase activation is key to melanoma progression and the paucity of clinically approved ERK inhibitors. […]
# [1] = tested on: human melanoma (MDA-MB-435 cells); assay: Melanoma growth in SCID mice bearing MDA-MB-435 xenograft; type: in vivo, mouse; details: 5 days-on/2 days-off; for tumor growth (volume): from Day 16
# Experimental: In experiments with SCID mice, 5 week old CB17/lcr-Prkdcscid/lcrlcoCrl mice (sourced from Charles River Laboratories, USA) were inoculated s.c. with human MDA-MB-435 cells (2.5×10^6 cells/animal in 100 μl PBS) in the third mammary fat pad on Day 0. These cells were also sourced from ATCC. BT2 was suspended at 9.6 mg/ml in vehicle (saline containing 0.5% (v/v) Tween 80 and 0.01% (v/v) DMSO) and sonicated. Vehicle or BT2 were administered i.p. or intratumorally (i.t.) 20 mg/kg (i.t.) or 200 mg/kg (i.p.), once a day on a 5 days-on/2 days-off schedule. Treatment commenced on Day 16 and ended on Day 43. Tumor growth and body weight data is sourced from the animal study described in Li et al (Li et al., 2019) with the same vehicle group.
# Tumors were measured by length and width in mm twice per week for MDA-MB-435 in SCID mice and by length, width and height in mm once per day for B16F10 in C57BL/6J mice. Tumor volumes were calculated using formula V=(L×W×H×π)/6 (B16F10) or V=L×W×W/2 (MDA-MB-435). If a second tumor was detected in an animal, both tumor volumes were measured and their volumes combined. Animal protocols were approved by the Explora Biolabs' Institutional Animal Care and Use Committee (IACUC) and the UNSW Animal Care and Ethics Committee.
# BT2's ability to inhibit melanoma growth was investigated in a murine xenograft model. Immunocompromised SCID mice (C.B.17/lcr-Prkdcscid/lcrlcoCrl) bearing human melanoma (MDA-MB-435 cells, also mutant BRAF^V600E) were treated with 20 mg/kg BT2 intratumorally (i.t.) on a 5 days-on/2 days-off regime (FIG. 5A).
# To assess the effect of BT2 when delivered systemically (rather than locally) in the same immunodeficient mouse model, C.B.17 SCID mice bearing s.c. MDA-MB-435 tumors were given BT2 200 mg/kg or vehicle i.p. once a day on a 5 days-on/2 days-off schedule. Treatment commenced on Day 16 (FIG. 7A).
# [2] = MDA-MB-435, 20 mg/kg i.t. once a day
smiles,measurement,setting,value
"CCOC(=O)Nc1ccc2c(c1)C(=O)N(CC)c1ccccc1O2 [BT2, (10-ethyl-11-oxo-10,11-dihydro-dibenzo[b,f][1,4]oxazepin-2-yl)-carbamic acid ethyl ester]",migration into the denuded zone,A375 cells,suppressed melanoma migration
same,PD-1 expression (Western blot),PD-1,suppressed by BT2 in a dose-dependent manner
same,"ERK phosphorylation (p-ERK, Western blot)",p-ERK (Thr^202/Tyr^204),suppressed ERK phosphorylation
same,body weight,[1]; [2],no adverse effect on body weight
same,tumor growth (volume),[1]; [2],caused growth inhibition
same,tumor growth (volume),"[1]; MDA-MB-435, 200 mg/kg i.p. once a day",no inhibition was observed
